Experimental data published in US9328099B2, “Cyanomethylpyrazole carboxamides as janus kinase inhibitors” (Merck Sharp & Dohme Corp., priority 2011, dated 2016).

Experiments:
JAK2 = JAK2 (Homo sapiens (Human), UniProt O60674); experiment: Jak Biochemical HTRF Assay, JAK2; settings: HTRF biochemical assay, GST-tagged catalytic domain; top concentration tested […]
Source text: (§1) Jak Biochemical HTRF Assay Protocol
(§2) Subsequent reagent additions employed an Agilent Bravo.

JAK1 = JAK1 (Homo sapiens (Human), UniProt P23458); experiment: Jak Biochemical HTRF Assay, JAK1; settings: HTRF biochemical assay, GST-tagged catalytic domain; top concentration tested […]; read-out: JAK1 IC50
Source text: as §1, §2

Chain of JAK1 (P23458 875-1153): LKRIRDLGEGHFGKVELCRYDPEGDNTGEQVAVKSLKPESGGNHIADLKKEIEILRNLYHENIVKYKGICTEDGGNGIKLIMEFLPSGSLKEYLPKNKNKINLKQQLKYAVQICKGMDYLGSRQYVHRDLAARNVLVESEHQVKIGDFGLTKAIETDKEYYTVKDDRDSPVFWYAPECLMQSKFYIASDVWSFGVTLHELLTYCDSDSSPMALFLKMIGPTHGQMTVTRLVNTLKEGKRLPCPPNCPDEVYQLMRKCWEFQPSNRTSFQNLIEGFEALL
Chain of JAK2 (O60674 849-1124): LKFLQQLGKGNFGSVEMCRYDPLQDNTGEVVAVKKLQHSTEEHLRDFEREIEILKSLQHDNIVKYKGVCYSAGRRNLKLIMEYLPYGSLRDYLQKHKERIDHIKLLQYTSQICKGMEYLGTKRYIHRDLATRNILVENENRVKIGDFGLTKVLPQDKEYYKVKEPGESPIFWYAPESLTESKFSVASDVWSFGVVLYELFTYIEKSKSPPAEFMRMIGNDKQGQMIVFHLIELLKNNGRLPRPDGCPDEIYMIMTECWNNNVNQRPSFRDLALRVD

Row | IC50 (JAK2) | IC50 (JAK1) | Compound
1 | 2 nM | 0.09 nM | N#CCC1(n2cc(C(N)=O)c(Nc3ccc(Cl)cc3)n2)CCC(N2CC(F)C2)CC1 (stereo not drawn) [Example 39-1, Cis or trans 3-((4-chlorophenyl)amino)-1-(1-(cyanomethyl)-4-(3-fluoroazetidin-1-yl)cyclohexyl)-1H-pyrazole-4-carboxamide]
2 | 738 nM | 271 nM | CC(C)(C)OC(=O)N1CCC(C(C#N)C2CC2)(n2cc(C(N)=O)c(Nc3ccc(F)cc3)n2)CC1 (centres unmarked) [Example 5-2, tert-butyl 4-{4-carbamoyl-3-[(4-fluorophenyl)amino]-1H-pyrazol-1-yl}-4-[cyano(cyclopropyl)methyl] piperidine-1-carboxylate]
3 | 5 nM | 0.4 nM | N#CCC1(n2cc(C(N)=O)c(Nc3ccc(F)cc3)n2)CCN(c2ccncn2)CC1 [Example 26, 1-[4-(Cyanomethyl)-1-pyrimidin-4-ylpiperidin-4-yl]-3-[(4-fluorophenyl)amino]-1H-pyrazole-4-carboxamide]
4 | 179 nM | 26 nM | CC(C)(C)OC(=O)N1CCC(CC#N)(n2cc(C(N)=O)c(Nc3cccnn3)n2)CC1 [Example 13-6, tert-butyl 4-(4-carbamoyl-3-(pyridazin-3-ylamino)-1H-pyrazol-1-yl)-4-(cyanomethyl)piperidine-1-carboxylate]
5 | 13 nM | 2 nM | CC(C)S(=O)(=O)N1CCC(CC#N)(n2cc(C(N)=O)c(Nc3ccccc3)n2)CC1 [Example 37-1, 1-[4-(Cyanomethyl)-1-(isopropylsulfonyl)piperidin-4-yl]-3-(phenylamino)-1H-pyrazole-4-carboxamide]
6 | 147 nM | 5 nM | CC(C)(O)Cc1cccc(N2CCC(CC#N)(n3cc(C(N)=O)c(Nc4ccc(F)cc4)n3)CC2)n1 [Example 3-49, 1-{4-(cyanomethyl)-1-[6-(2-hydroxy-2-methylpropyl)pyridin-2-yl]piperidin-4-yl}-3-[(4-fluorophenyl)amino]-1H-pyrazole-4-carboxamide]
7 | 70 nM | 2 nM | N#CCC1(n2cc(C(N)=O)c(Nc3ccc(F)cc3)n2)CCN(c2ccc(F)c(F)c2)CC1 [Example 3-45, 1-[4-(cyanomethyl)-1-(3,4-difluorophenyl)piperidin-4-yl]-3-[(4-fluorophenyl)amino]-1H-pyrazole-4-carboxamide]
8 | 46 nM | 3 nM | CCOc1ccc(N2CCC(CC#N)(n3cc(C(N)=O)c(Nc4ccc(F)cc4)n3)CC2)cn1 [Example 3-36, 1-[4-(cyanomethyl)-1-(6-ethoxypyridin-3-yl)piperidin-4-yl]-3-[(4-fluorophenyl)amino]-1H-pyrazole-4-carboxamide]
9 | 9 nM | 0.2 nM | N#CCC1(n2cc(C(N)=O)c(Nc3ccnc(F)c3)n2)CCC(NCc2ccc(F)cc2)CC1 (stereo not drawn) [Example 41-12, Cis or trans 1-{1-(cyanomethyl)-4-[(4-fluorobenzyl)amino]cyclohexyl}-3-[(2-fluoropyridin-4-yl)amino]-1H-pyrazole-4-carboxamide]
10 | 2 nM | 0.09 nM | N#CC[C@]1(n2cc(C(N)=O)c(Nc3ccc(F)cc3)n2)CC[C@@H](NCc2ccccc2)CC1 [Example 40-108, 1-[cis-4-(benzylamino)-1-(cyanomethyl)cyclohexyl]-3-[(4-fluorophenyl)amino]-1H-pyrazole-4-carboxamide]
11 | 107 nM | 5 nM | N#CCC1(n2cc(C(N)=O)c(Nc3ccccc3)n2)CCN(C(=O)C2CCCO2)CC1 (centres unmarked) [Example 34-6, 1-[4-(cyanomethyl)-1-(tetrahydrofuran-2-ylcarbonyl)piperidin-4-yl]-3-(phenylamino)-1H-pyrazole-4-carboxamide]
12 | 1480 nM | 148 nM | CC(C)(C)OC(=O)N1CCC(CC#N)(n2cc(C(N)=O)c(Nc3cccc(-c4ccc(Cl)cc4)c3)n2)CC1 [Example 15-1, tert-Butyl 4-{4-carbamoyl-3-[(4′-chlorobiphenyl-3-yl)amino]-1H-pyrazol-1-yl}-4-(cyanomethyl)piperidine-1-carboxylate]
13 | 210 nM | 8 nM | CC(C)(C)OC(=O)N1CCC(CC#N)(n2cc(C(N)=O)c(Nc3cnccn3)n2)CC1 [Example 13-7, tert-butyl 4-(4-carbamoyl-3-(pyrazine-2-ylamino)-1H-pyrazol-1-yl)-4-(cyanomethyl)piperidine-1-carboxylate]
14 | 27 nM | 2 nM | N#CCC1(n2cc(C(N)=O)c(Nc3ccccc3)n2)CN(C(=O)OCCF)C1 [Example 30-50, 2-fluoroethyl 3-[4-carbamoyl-3-(phenylamino)-1H-pyrazol-1-yl]-3-(cyanomethyl)azetidine-1-carboxylate]
15 | 3 nM | 0.3 nM | CC(C)(C)OC(=O)N1CCC(CC#N)(n2cc(C(N)=O)c(Nc3ccc(C(C)(C)O)cc3)n2)CC1 [Example 9-8, tert-butyl 4-(4-carbamoyl-3-(4-(2-hydroxypropan-2-yl)phenylamino)-1H-pyrazol-1-yl)-4-(cyanomethyl)piperidine-1-carboxylate]
16 | 216 nM | 18 nM | N#CCC1(n2cc(C(N)=O)c(Nc3ccc(F)cc3)n2)CCC(N2CC(F)C2)CC1 (stereo not drawn) [Example 40-100, Cis or trans 1-[1-(cyanomethyl)-4-(3-fluoroazetidin-1-yl)cyclohexyl]-3-[(4-fluorophenyl)amino]-1H-pyrazole-4-carboxamide]
17 | 46 nM | 1 nM | N#CCC1(n2cc(C(N)=O)c(Nc3ccnc(F)c3)n2)CCN(C(=O)CC2CC2)CC1 [Example 34-45, 1-[4-(cyanomethyl)-1-(cyclopropylacetyl)piperidin-4-yl]-3-[(2-fluoropyridin-4-yl)amino]-1H-pyrazole-4-carboxamide]
18 | > 1500 nM | 344 nM | N#CCC1(n2cc(C(N)=O)c(Nc3ccc(S(=O)(=O)C(F)F)cc3)n2)CCC(NC2CCOCC2)CC1 (stereo not drawn) [Example 40-66, Cis or trans 1-[1-(cyanomethyl)-4-(tetrahydro-2H-pyran-4-ylamino)cyclohexyl]-3-({4-[(difluoromethyl)sulfonyl]phenyl}amino)-1H-pyrazole-4-carboxamide]
19 | 15 nM | 0.4 nM | CC(C)(C)OC(=O)N1CCC(CC#N)(n2cc(C(N)=O)c(Nc3ccnnc3)n2)CC1 [Example 12-6, tert-butyl 4-[4-carbamoyl-3-(pyridazin-4-ylamino)-1H-pyrazol-1-yl]-4-(cyanomethyl)piperidine-1-carboxylate]
20 | 93 nM | 5 nM | COCC(=O)N1CCC(CC#N)(n2cc(C(N)=O)c(Nc3ccccc3)n2)CC1 [Example 34-2, 1-[4-(cyanomethyl)-1-(methoxyacetyl)piperidin-4-yl]-3-(phenylamino)-1H-pyrazole-4-carboxamide]
21 | 298 nM | 42 nM | CCC(=O)N1CC(CC#N)(n2cc(C(N)=O)c(Nc3ccccc3)n2)C1 [Example 34-36, 1-[3-(cyanomethyl)-1-propanoylazetidin-3-yl]-3-(phenylamino)-1H-pyrazole-4-carboxamide]
22 | 18 nM | 0.3 nM | N#CCC1(n2cc(C(N)=O)c(Nc3ccnc(F)c3)n2)CCN(C(=O)OCC2CC2)CC1 [Example 30-49, Cyclopropylmethyl 4-{4-carbamoyl-3-[(2-fluoropyridin-4-yl)amino]-1H-pyrazol-1-yl}-4-(cyanomethyl)piperidine-1-carboxylate]
